The text below walks through data of patent US4500708A, “Benzothiazine derivatives” (G. D. Serle & Co., priority 1984, dated 1985).

A short description of assay [1]: Food intake test (food-deprived rats). It is filed as in vivo, Male Sprague-Dawley derived rats. The protocol: (§1) Male Sprague-Dawley derived rats, Charles River Breeders (Portage, MI), weighing between 200-400 grams at the time of testing, were employed in the food intake studies and water intake studies. The rats were housed individually and kept on a 12 hour light-dark light cycle. The room temperature ranged between 23°-25° C.
The rats employed in food intake testing were food deprived on the day preceding testing and were divided into experimental groups that were matched on the basis of average daily food intake and body weight. At approximately 24 hours post-deprivation, the rats were administered a test sample containing as the active ingredient a compound of the present invention. All test samples employed herein were prepared and homogenized in a vehicle of normal saline (to which a few drops of PG/Tween 80 was added). The test samples were administered at an injection volume of 2 ml./kg, unless otherwise stated. Thirty minutes following administration of the test samples, pre-weighed food jars, containing ground meal, were placed in the rats' cages. (Prior to testing the rats were given ground meal for a minimum of 3 days to familiarize the rats with this food.) After 1, 2 and 6 hours of food access, the jars were removed, weighed and returned to the rats' cages providing a 1, 2 and 6 hour intake measurement. The results obtained are represented in Table I. A student t test was used for making statistical comparisons, and the p-values are based upon two-tailed comparisons. The compound employed as the active ingredient of the test sample is indicated by the example number which describes its preparation.

Assay [2] is described as follows: Water intake test (water-deprived rats). It is filed as in vivo, Male Sprague-Dawley derived rats. Particulars: for Water Intake as a % of Control, 15 m: 15 minutes; for Water Intake as a % of Control, 30 m: 30 minutes; for Water Intake as a % of Control, 45 m: 45 minutes; for Water Intake as a % of Control, 60 m: 60 minutes; for Water Intake as a % of Control, 120 m: 120 minutes. The protocol: as §1
The rats employed in water intake testing were water deprived for 1 day and then maintained on a restricted water schedule. Water was available for two hours on the first day post water deprivation and for 1 hour each day afterwards for a minimum of 1 week. Using drinking tubes (50 ml. graduated cylinders), water intake was measured for at least 3 consecutive days prior to testing. On the day preceding testing, rats were divided into different experimental groups that were matched on the basis of avg. 0-15 min. water intake and body weight. On the day of testing, a test sample, containing as the active ingredient the compound prepared in Example 2, was administered. […] Food was removed from the animal at the start of the drinking test. A student t test was used for making statistical comparisons, and the p-values are based upon two-tailed comparisons.

Setting [3] is: 32.0 mg/kg i.g., injection volume 3.0 ml./kg.
Where [4] appears, read: 75.0 mg/kg i.g., injection volume 3.0 ml./kg.

Regarding `O=c1c(-c2ccc(Cl)cc2)c2c(cn1CO)Sc1ccccc1N2` [Example 1, 4-(4-chlorophenyl)-2-(hydroxymethyl)-5H-pyrido[3,4-b][1,4]benzothiazin-3(2H)-one], in assay [1] (10.0 mg/kg i.g.), the “Food Intake % of control, 1 Hr.” value was 109.8 % of control; the “Food Intake % of control, 2 Hr.” value is reported as 104.5 % of control; the “Food Intake % of control, 6 Hr.” value is recorded as 92.1 % of control. In assay [1] (32.0 mg/kg i.g.), the “Food Intake % of control, 1 Hr.” value is listed as 90.2 % of control; the “Food Intake % of control, 2 Hr.” value is 86.6 % of control; the “Food Intake % of control, 6 Hr.” value was 86.5 % of control. For the same molecule, the “oral appetite suppressant activity” value in assay [1] is given as “possess oral appetite suppressant activity”.

For `CC(C)(C)C(=O)OCn1cc2c(c(-c3ccc(Cl)cc3)c1=O)Nc1ccccc1S2` [Example 9, 4-(4-chlorophenyl)-2-[(2,2-dimethyl-1-oxopropoxy)methyl]-5H-pyrido[3,4-b][1,4]benzothiazin-3(2H)-one], in assay [1] (10.0 mg/kg i.g.), the “Food Intake % of control, 1 Hr.” value was 111.1 % of control; the “Food Intake % of control, 2 Hr.” value was 102.6 % of control; the “Food Intake % of control, 6 Hr.” value is listed as 96.3 % of control. In assay [1] (32.0 mg/kg i.g.), the “Food Intake % of control, 1 Hr.” value was 111.1 % of control; the “Food Intake % of control, 2 Hr.” value was 106.4 % of control; the “Food Intake % of control, 6 Hr.” value is 92.5 % of control.

Consider `CCCC(=O)OCn1cc2c(c(-c3ccc(Cl)cc3)c1=O)Nc1ccccc1S2` [Example 2, 4-(4-chlorophenyl)-2-[(1-oxobutoxy)methyl]-5H-pyrido[3,4-b][1,4]benzothiazin-3-(2H)-one], for which the “Food Intake % of control, 1 Hr.” value in assay [1] (1.0 mg/kg i.p.) was 87.9 % of control; in assay [1] (3.2 mg/kg i.p.) it was 57.6 % of control; in assay [1] (10.0 mg/kg i.g.) it was 85.7 % of control; in assay [1] (10.0 mg/kg i.p.) it was 39.4 % of control; in assay [1] (32.0 mg/kg i.g.), 57.1 % of control; in assay [1] (32.0 mg/kg i.p.), 30.3 % of control. The “Food Intake % of control, 2 Hr.” value is on record as 90.9 % of control in assay [1] (1.0 mg/kg i.p.); 76.6 % of control in assay [1] (3.2 mg/kg i.p.); 93.6 % of control in assay [1] (10.0 mg/kg i.g.); 61.0 % of control in assay [1] (10.0 mg/kg i.p.); 74.4 % of control in assay [1] (32.0 mg/kg i.g.); 40.3 % of control in assay [1] (32.0 mg/kg i.p.). For the same molecule, the “Food Intake % of control, 6 Hr.” value was 100.0 % of control in assay [1] (1.0 mg/kg i.p.); 91.0 % of control in assay [1] (3.2 mg/kg i.p.); 92.5 % of control in assay [1] (10.0 mg/kg i.g.); 88.1 % of control in assay [1] (10.0 mg/kg i.p.); 87.9 % of control in assay [1] (32.0 mg/kg i.g.); 70.3 % of control in assay [1] (32.0 mg/kg i.p.). The “oral appetite suppressant activity” value in assay [1] was “possess oral appetite suppressant activity”. The entries for the “Water Intake as a % of Control, 15 m” value in assay [2] (10.0 mg/kg i.g.), in assay [2] (18.0 mg/kg i.g.) and in assay [2] (32.0 mg/kg i.g.) were 96.4 % of Control, 89.2 % of Control and 64.9 % of Control, respectively. Moreover, the entries for the “Water Intake as a % of Control, 30 m” value in assay [2] (10.0 mg/kg i.g.), in assay [2] (18.0 mg/kg i.g.) and in assay [2] (32.0 mg/kg i.g.) were 98.3 % of Control, 89.1 % of Control and 69.7 % of Control, respectively. Moreover, the “Water Intake as a % of Control, 45 m” value in assay [2] (10.0 mg/kg i.g.) is 99.2 % of Control; in assay [2] (18.0 mg/kg i.g.), 88.6 % of Control; in assay [2] (32.0 mg/kg i.g.), 70.7 % of Control. For the same molecule, the results for the “Water Intake as a % of Control, 60 m” value in assay [2] (10.0 mg/kg i.g.), in assay [2] (18.0 mg/kg i.g.) and in assay [2] (32.0 mg/kg i.g.) were 100.0 % of Control, 92.0 % of Control and 75.2 % of Control, respectively. The “Water Intake as a % of Control, 120 m” value in assay [2] (10.0 mg/kg i.g.) is recorded as 103.7 % of Control; in assay [2] (18.0 mg/kg i.g.) it was 94.8 % of Control; in assay [2] (32.0 mg/kg i.g.) it was 79.3 % of Control.

As for `CCCCC(=O)OCn1cc2c(c(-c3ccc(Cl)cc3)c1=O)Nc1ccccc1S2` [Example 3, 4-(4-chlorophenyl)-2-[(1-oxopentoxy)methyl]-5H-pyrido[3,4-b][1,4]benzothiazin-3(2H)-one], in assay [1] (setting [3]), the “Food Intake % of control, 1 Hr.” value was 83.3 % of control; the “Food Intake % of control, 2 Hr.” value is 100.0 % of control; the “Food Intake % of control, 6 Hr.” value was 111.5 % of control. Also, in assay [1] (setting [4]), the “Food Intake % of control, 1 Hr.” value was 68.5 % of control; the “Food Intake % of control, 2 Hr.” value is 96.8 % of control; the “Food Intake % of control, 6 Hr.” value is 102.6 % of control. The “oral appetite suppressant activity” value in assay [1] was “possess oral appetite suppressant activity”.

Take `O=c1c(-c2ccc(Cl)cc2)c2c(cn1CO)Sc1ccc(Cl)cc1N2` [Example 5, 7-chloro-4-(4-chlorophenyl)-2-(hydroxymethyl)-5H-pyrido[3,4-b][1,4]benzothiazin-3(2H)-one]: in assay [1] (75.0 mg/kg i.g.), the “Food Intake % of control, 1 Hr.” value is listed as 89.9 % of control; the “Food Intake % of control, 2 Hr.” value is on record as 96.1 % of control; the “Food Intake % of control, 6 Hr.” value was 83.1 % of control.
